The source of these data is EP0671410A1, “Antiviral compounds” (priority 1989, dated 1991).

Assay [1] concerns Influenza A and B strains. Kind of assay: microbe, parasite or virus in culture. Conditions: in Gallus gallus, read-out: Anti-influenza Activity CE cells IC50,µM. The format is cell-based.
In assay [2] the test system is Influenza A and B strains. The arrangement: species or system Mice. Conditions: in vivo.
For assay [3], the system named is Respiratory Syncytial Virus (RSV). Kind of assay: microbe, parasite or virus in culture. The class given is cell-based. Conditions: human respiratory syncytial virus, BSC-1; BS-C-1 cells (African Green Monkey kidney cells); plaque/foci reduction; read-out: Anti-respiratory syncytial virus BS-C-1 cells IC₅₀.

Consider `Nc1nc2c(ncn2[C@@H]2O[C@H](CO)[C@@H](O)[C@H]2F)c(=O)[nH]1` [Example 7, 9-(2-Deoxy-2-fluoro-β-D-ribofuranosyl)guanine], for which the IC50 in assay [1] was 0.8 to 2 µM; in assay [3] it was 26.2 µM. In addition, the “Anti-influenza Activity Mouse log10 reduction in virus titre. (Average of 5 Mice)” value in assay [2] was “+(2.4) log10”.

For the molecule `COc1nc(N)nc2c1ncn2[C@@H]1O[C@H](CO)[C@@H](O)[C@H]1F` [Example 12, 2-Amino-9-(2-deoxy-2-fluoro-β-D-ribofuranosyl)-6-methoxy-9H-purine], the IC50 in assay [1] is 0.4 µM; in assay [3] it was 6.3 µM. For the same molecule, in assay [2], the “Anti-influenza Activity Mouse log10 reduction in virus titre. (Average of 5 Mice)” value is listed as “+(1.9) log10”.

Consider `Nc1ncc2ncn([C@@H]3O[C@H](CO)[C@@H](O)[C@H]3F)c2n1` [Example 9, 2-Amino-9-(2-deoxy-2-fluoro-β-D-ribofuranosyl)-9H-purine], for which the “Anti-influenza Activity Mouse log10 reduction in virus titre. (Average of 5 Mice)” value in assay [2] is “+(1.6) log10”.

Consider `Nc1ncnc2c1ncn2[C@@H]1O[C@H](CO)[C@@H](O)[C@H]1F` [Example 8, 9-(2-Deoxy-2-fluoro-β-D-ribofuranosyl)adenine], for which the IC50 in assay [1] came out at 4 µM. Moreover, in assay [2], the “Anti-influenza Activity Mouse log10 reduction in virus titre. (Average of 5 Mice)” value was “+(2.3) log10”.

As to `Nc1nc(N)c2ncn([C@@H]3O[C@H](CO)[C@@H](O)[C@H]3F)c2n1` [Example 6, 2,6-Diamino-9-(2-deoxy-2-fluoro-β-D-ribofuranosyl)-9H-purine], the IC50 in assay [1] was 0.6 µM. The “Anti-influenza Activity Mouse log10 reduction in virus titre. (Average of 5 Mice)” value in assay [2] is reported as “+(2.1) log10”.
